Laboratory results from paper PMC8623273, “Novel N7-Arylmethyl Substituted Dinucleotide mRNA 5′ cap Analogs: Synthesis and Evaluation as Modulators of Translation” (Pharmaceutics, 2021).

System: A549 cells
Experiment: translational efficiency of mRNAs capped with the analogs in A549 cells (Gaussia luciferase)
Assay type: cell-based
Settings: mRNA capped with the analog; Gaussia luciferase activity in A549 cells 72 h post-transfection; normalized to m^7GpppG RNA
Method: Finally, we tested the properties of arylmethyl cap analogs as reagents for co-transcriptional mRNA capping. […] Here, we sought to evaluate the translational properties of mRNAs capped with N7-arylmethyl analogs in cultured cells. To that end, the translation properties of transcripts capped with selected analogs were assessed in A549 cells. In vitro transcribed mRNAs encoding Gaussia luciferase, capped with compounds 1a–1k, 1m–1n, and 1p–1r or with reference analogues m^7GpppG and ARCA (m^7GmpppG), were purified via RP HPLC, transfected into A549 cells, and the protein activity (luminescence) was measured using a reporter assay at 72 h post-transfection. The total amount of protein produced over 72 h from each capped RNA was normalized to m^7GpppG RNA (Figure 6 and Figure S4). […] Namely, replacing the N7-methyl group with a benzyl moiety (1a) increased protein production over fivefold in A549 cells compared to m^7GpppG-capped mRNA (Figure 6).
The influence of N7-arylmethylated dinucleotide 5′ cap analogues on the translational properties of HPLC-purified IVT mRNA is shown in Figure S4, Measurements are total protein produced over 72 h by A549 cells transfected with capped mRNAs. Each plot in Figure S4 represents a single experiment consisting of three independent transfections of the cells at the same passage. Bars show mean value normalized to […] ± SD. In the main manuscript, all nine data points from three different cell passages were combined to present cumulative protein expression.

Substance: m^7GmpppG [reference compound]
- Rel. Protein Expression: 8.6 ± 1.0
